Data reported in patent US9211310B2, “Use of a Chinese medicine composition in preparing medicaments for treating secondary prevention of myocardial infarction” (TASLY PHARMACEUTICAL GROUP CO., LTD, priority 2010, dated 2015).

Test system: patients after acute myocardial infarction
Experiment: Life quality, Seattle Angina Questionnaire (SAQ), same clinical trial
Assay type: in vivo, human
Details: FAS; 1 month after treatment
Source text: 3508 patients who were in accordance with the diagnostic standards of AMI for 28 days to 2 years and differentiated as Qi deficiency and blood stagnation syndrome by TCM were studied. 0.5 g Chinese medicine composition prepared by the method of EXAMPLE 1 (Coded as QSYQ) was administrated half an hour after meal, 3 times per day.
There were 19 questions in the Seattle angina questionnaire (SAQ), including 5 parts: physical limitation (PL), anginal stability (AS), anginal frequency (AF), treatment satisfaction (TS) and disease perception (DP). After being given necessary explanation by doctors, the questions were answered independently by patients.
They included the overall survival time, angina pectoris score, TCM symptom score and life quality score, where angina pectoris score, TCM symptom score and life quality score were evaluated at randomization, in 1st, 3rd, 6th, 9th, 12th month after treatment and 18th month after follow-up.
All evaluation results of SAQ were described during the period of observation, and Wilcoxon rank sum test was used for inter-group comparison.
The evaluation results in the SAQ were depicted in different observations, and inter-group comparison was tested by Wilcoxon Rank-sum test.

CC(=O)Oc1ccccc1C(=O)O [Control group, aspirine]
8th question: Highly satisfied, patients (%): (17.37%) | 8th question: Mostly dissatisfied, patients (%): (4.07%) | 8th question: Mostly satisfied, patients (%): (50.29%) | 8th question: Partly satisfied, patients (%): (27.92%) | 9th question: Few, patients (%): (26.78%) | 9th question: Mild, patients (%): (36.07%) | 9th question: Moderate, patients (%): (18.81%) | 9th question: Severe, patients (%): (2.24%) | 9th question: Uneffective, patients (%): (16.11%) | 10th question: Dissatisfied, patients (%): (22.71%) | 10th question: Highly satisfied, patients (%): (4.07%) | 10th question: Mostly dissatisfied, patients (%): (22.94%) | 10th question: Mostly satisfied, patients (%): (20.70%) | 10th question: Partly satisfied, patients (%): (29.59%) | 11th question: Continuously worried, patients (%): (6.71%) | 11th question: No worried, patients (%): (4.70%) | 11th question: Occasionally worried, patients (%): (40.94%) | 11th question: Often worried, patients (%): (20.93%) | 11th question: Seldom worried, patients (%): (26.72%) | SAQ 4th question, 1-2 times per week: % of patients: (17.55%) | SAQ 4th question, 1-2 times per week: number of patients: 306 | SAQ 4th question, 1-3 times per day: % of patients: (6.54%) | SAQ 4th question, 1-3 times per day: number of patients: 114 | SAQ 4th question, <1 time per week: % of patients: (9.58%) | SAQ 4th question, <1 time per week: number of patients: 167 | SAQ 4th question, Not used: % of patients: (53.10%) | SAQ 4th question, Not used: number of patients: 926 | SAQ 4th question, ≧3 times per week: % of patients: (13.19%) | SAQ 4th question, ≧3 times per week: number of patients: 230 | SAQ 4th question, ≧4 times per day: % of patients: (0.06%) | SAQ 4th question, ≧4 times per day: number of patients: 1 | SAQ 5th question, Few: % of patients: (21.56%) | SAQ 5th question, Few: number of patients: 376 | SAQ 5th question, Mild: % of patients: (28.90%) | SAQ 5th question, Mild: number of patients: 504 | SAQ 5th question, Moderate: % of patients: (17.43%) | SAQ 5th question, Moderate: number of patients: 304 | SAQ 5th question, None: % of patients: (26.32%) | SAQ 5th question, None: number of patients: 459 | SAQ 5th question, Not medicated by doctors: % of patients: (3.38%) | SAQ 5th question, Not medicated by doctors: number of patients: 59 | SAQ 5th question, Severe: % of patients: (2.41%) | SAQ 5th question, Severe: number of patients: 42 | SAQ 6th question, Dissatisfied: % of patients: (0.46%) | SAQ 6th question, Dissatisfied: number of patients: 8 | SAQ 6th question, Highly consent: % of patients: (18.00%) | SAQ 6th question, Highly consent: number of patients: 314 | SAQ 6th question, Mostly dissatisfied: % of patients: (4.01%) | SAQ 6th question, Mostly dissatisfied: number of patients: 70 | SAQ 6th question, Mostly satisfied: % of patients: (49.14%) | SAQ 6th question, Mostly satisfied: number of patients: 857 | SAQ 6th question, Partly satisfied: % of patients: (28.38%) | SAQ 6th question, Partly satisfied: number of patients: 495 | SAQ 7th question, Dissatisfied: % of patients: (0.17%) | SAQ 7th question, Dissatisfied: number of patients: 3 | SAQ 7th question, Highly satisfied: % of patients: (23.31%) | SAQ 7th question, Highly satisfied: number of patients: 406 | SAQ 7th question, Mostly dissatisfied: % of patients: (3.10%) | SAQ 7th question, Mostly dissatisfied: number of patients: 54 | SAQ 7th question, Mostly satisfied: % of patients: (49.94%) | SAQ 7th question, Mostly satisfied: number of patients: 870 | SAQ 7th question, Partly satisfied: % of patients: (23.48%) | SAQ 7th question, Partly satisfied: number of patients: 409 | SAQ Question 1-1 Mildly limited, number of patients: 24 | SAQ Question 1-1 Mildly limited, percent of patients: (1.38%) | SAQ Question 1-1 Moderately limited, number of patients: 11 | SAQ Question 1-1 Moderately limited, percent of patients: (0.63%) | SAQ Question 1-1 Not limited, number of patients: 1607 | SAQ Question 1-1 Not limited, percent of patients: (92.20%) | SAQ Question 1-1 Other reasons, number of patients: 4 | SAQ Question 1-1 Other reasons, percent of patients: (0.23%) | SAQ Question 1-1 Severely limited, number of patients: 2 | SAQ Question 1-1 Severely limited, percent of patients: (0.11%) | SAQ Question 1-1 Slightly limited, number of patients: 95 | SAQ Question 1-1 Slightly limited, percent of patients: (5.45%) | SAQ Question 1-2 Mildly limited, number of patients: 32 | SAQ Question 1-2 Mildly limited, percent of patients: (1.84%)
